In patent US6462039B1, “Fungicidal benzoheterocyclyloxime” (Bayer Aktiengesellschaft, priority 1998, dated 2002):
Read-outs that look alike come from different tables or passages of the source.

Columns and labels:
[1] = tested on: Erysiphe graminis f.sp. hordei; assay: Erysiphe test (barley)/protective; assay type: in vivo; details: protective, application rate 250 g/ha, evaluation 7 days after inoculation
Protocol: Erysiphe Test (Barley)/Protective Solvent: 25 parts by weight of N,N-dimethylacetamide Emulsifier: 0.6 part by weight of alkylaryl polyglycol ether To produce a suitable preparation of active compound 1 part by weight of active compound is mixed with the stated amounts of solvent and emulsifier and the concentrate is diluted with water to the desired concentration. To test for protective activity, young plants are sprayed with the preparation of active compound at the stated application rate. After the spray coating has dried on, the plants are dusted with spores of Erysiphe graminis f.sp. hordei. The plants are placed in a greenhouse at a temperature of approximately 20° C. and a relative atmospheric humidity of approximately 80% to promote the development of mildew pustules.

[2] = tested on: Erysiphe graminis f.sp. hordei; assay: Erysiphe test (barley)/curative; assay type: in vivo; details: curative (sprayed 48 hours after inoculation), application rate 250 g/ha, evaluation 7 days after inoculation
Protocol: Erysiphe Test (Barley)/Curative Solvent: 25 parts by weight of N,N-dimethylacetamide Emulsifier: 0.6 part of weight of alkylaryl polyglycol ether To produce a suitable preparation of active compound 1 part by weight of active compound is mixed with the stated amounts of solvent and emulsifier and the concentrate is diluted with water to the desired concentration. To test for curative activity, young plants are dusted with spores of Erysiphe graminis f.sp. hordei. 48 hours after the inoculation, the plants are sprayed with the preparation of active compound at the stated application rate. The plants are placed in a greenhouse at a temperature of approximately 20° C. and a relative atmospheric humidity of approximately 80% to promote the development of mildew pustules.

[3] = tested on: Fusarium nivale (var. nivale); assay: Fusarium nivale (var. nivale) test (wheat)/protective; assay type: in vivo; details: protective, application rate 250 g/ha, evaluation 4 days after inoculation
Source text: Fusarium Nivale (Var. Nivale) Test (Wheat)/Protective Solvent: 25 parts by weight of N,N-dimethylacetamide Emulsifier: 0.6 part by weight of alkylaryl polyglycol ether […] To test for protective activity, young plants are sprayed with the preparation of active compound at the stated application rate. After the spray coating has dried on, the plants are sprayed with a conidia suspension of Fusarium nivale (var. nivale).

Puccinia recondita = assay: Puccinia test (wheat)/protective; assay type: in vivo; details: protective, application rate 250 g/ha, evaluation 10 days after inoculation
Protocol: Puccinia Test (Wheat)/Protective Solvent: 25 parts by weight of N,N-dimethylacetamide Emulsifier: 0.6 part by weight of alkylaryl polyglycol ether […] To test for protective activity, young plants are sprayed with the preparation of active compound at the stated application rate. After the spray coating has dried on, the plants are dusted with a conidia suspension of Puccinia recondita. […] The plants are then placed in a greenhouse at a temperature of approximately 20° C. and a relative atmospheric humidity of 80% to promote the development of rust pustules.

chromatographic logP (physchem) | Structure (SMILES) | chromatographic logP | further results
 | CC(=O)c1nn(C(C)C)c2ccccc12 [(V-5)] | 2.98 | 
 | CO/N=C(/C1=NOCCO1)c1ccccc1CO/N=C(\C)c1nn(C)c2ccccc12 [Example 1, O-{2-[(5,6-dihydro-[1,4,2]dioxazin-3-yl)-methoxyiminomethyl]-benzyl}1-(1-methyl-1H-indazol-3-yl)-ethanone-oxime] |  | efficacy [1]: 100%; efficacy [2]: 100%; efficacy [3]: 100%; efficacy (Puccinia recondita): 100%
 | CC(=O)c1cn(C(F)F)c2ccccc12 [(V-7)] | 2.22 | 
2.13 | CCn1nc(/C(C)=N\O)c2ccccc21 [(II-a-2)] |  | 
 | CCn1cc(C(C)=O)c2ccccc21 [(V-2)] | 2.35 | 
 | CC(=O)c1nn(C(F)F)c2ccccc12 [Example (V-1), 1-(1-difluoromethyl-1H-indazol-3-yl)-ethanone] | 2.67 | 
2.55 | CCCn1nc(/C(C)=N\O)c2ccccc21 [(II-a-3)] |  | 
 | CCCn1nc(C(C)=O)c2ccccc21 [(V-3)] | 2.81 | 
2.28 | C=CCn1nc(/C(C)=N\O)c2ccccc21 [(II-a-4)] |  | 
1.99 | COc1ccc2c(C(C)=O)nn(C)c2c1 [(V-6)] |  | 
2.25 | C/C(=N/O)c1cn(C(F)F)c2ccccc12 [(II-a-7)] |  | 
2.72 | C/C(=N/O)c1nn(C(C)C)c2ccccc12 [(II-a-5)] |  | 
 | C=CCn1nc(C(C)=O)c2ccccc21 [(V-4)] | 2.53 | 

Structure (SMILES) | chromatographic logP (physchem) | chromatographic logP | further results
COc1ccc2c(/C(C)=N\O)nn(C)c2c1 [(II-a-6)] | 1.76 |  | 
